# Laboratory results: US20100056522A1, “INTRAOCULAR PRESSURE-LOWERING AGENT COMPRISING COMPOUND HAVING HISTONE DEACETYLASE INHIBITOR EFFECT AS ACTIVE INGREDIENT” (Santen Pharmaceutical Co., Ltd., priority 2007, published 2010)
# Columns and labels:
# [1] = test system: HDAC (HeLa nuclear extract); assay: Test for evaluation of an HDAC inhibitory effect (HDAC Fluorimetric Assay/Drug Discovery Kit, Biomol); format: biochemical; settings: final concentration of test compound 30 μM, rates of more than 100% are shown as 100%
# Procedure: Using HDAC Fluorimetric Assay/Drug Discovery Kit (manufactured by Biomol), an HDAC inhibitory effect of the present compounds was measured according to the protocol included with the kit. The kit contains Buffer, HeLa nuclear extract (includes an HDAC), Substrate, Developer and Trichostatin A (an HDAC inhibitor).
# A test compound was dissolved in dimethyl sulfoxide, whereby a 2 mg/mL solution was prepared. Then, the resulting solution was diluted with Buffer containing 5% dimethyl sulfoxide, whereby a 150 μM test compound solution was prepared.
# 1) To a 384-well culture plate, the test compound solution was added in an amount of 2 μL per well.
# 2) HeLa nuclear extract was diluted 30-fold with Buffer. The resulting solution was added in an amount of 3 μL per well and then, incubation was performed at 37° C. for 2 hours.
# 3) Substrate was diluted 500-fold with Buffer. The resulting solution was added in an amount of 5 μL per well (the final concentration of the test compound was 30 μM) and then, incubation was performed at 37° C. for 10 minutes.
# 4) Developer was diluted 20-fold with Buffer and Trichostatin A (2 μM) was added to it. The resulting solution was added in an amount of 10 μL per well and then, incubation was performed at room temperature for 15 minutes.
# 5) The fluorescence intensity of each well was measured using multilabel counter ARVO (manufactured by Wallac) with excitation at 360 nm and emission at 460 nm.
# 6) A control data was obtained from the same experiment except that Buffer containing 5% DMSO was added instead of the test compound solution as the above-mentioned procedure from 1) to 5).
# 7) A blank data was obtained from the same experiment except that Buffer containing 5% DMSO was added instead of the test compound solution and that Buffer was added instead of Hela nuclear extract as the above-mentioned procedure from 1) to 5).
# Enzyme inhibitory rate (%) was calculated using the following equation.
# (Enzyme Inhibitory Rate(%))=100×[1−{(Fluorescence Intensity of Test Compound Solution)−(Florescence Intensity of Blank)}/{(Florescence Intensity of Control)−(Florescence Intensity of Blank)}]
# [2] = test system: TM-1 cells (human trabecular meshwork cell line); assay: Test for evaluation of effect of morphological change on trabecular meshwork cells (cell shape index); format: cell-based; settings: 10 μM, 24 hours, control CSI 0.679, lower CSI indicates greater morphological change
# Procedure: As a method for evaluating a cellular morphological change, an evaluation system using the cell shape index (hereinafter referred to as “CSI”) as an index has been reported in The Journal of Clinical Investigation, 103, 1141-1150 (1999). Therefore, according to the method described in the above document, an effect of morphological change by the present compounds on trabecular meshwork cells was evaluated.
# A human trabecular meshwork cell line (hereinafter referred to as “TM-1 cells”) reported in Investigative Opthalmology & Visual Science, 43, 151-161 (2002) was used.
# Culture medium 1: A reagent was prepared by adding fetal bovine serum (10%), L-glutamine (2 mM), amphotericin B (2.5 μg/mL), and gentamicin (25 μg/mL) to Dulbecco's Modified Eagle Medium (hereinafter referred to as “D-MEM”).
# Culture medium 2: Fetal bovine serum (3%), L-glutamine (2 mM), amphotericin B (2.5 μg/mL), and gentamicin (25 μg/mL) were added to D-MEM.
# Cell staining liquid: A mixed liquid of Calcein-AM (16 μM) and Hoechst 33342 (40 μM) was prepared by diluting a Calcein-AM solution (cytoplasmic staining reagent, manufactured by Dojindo Laboratories) and a Hoechst 33342 solution (nuclear staining reagent, manufactured by Dojindo Laboratories) with D-MEM containing L-glutamine (2 mM), amphotericin B (2.5 μg/mL), and gentamicin (25 μg/mL).
# TM-1 cells subcultured at 37° C. in a 8% carbon dioxide gas atmosphere were treated with a trypsin/EDTA solution (0.05% trypsin and 0.53 mM tetrasodium ethylenediaminetetraacetate) at 24 hours before performing a drug treatment mentioned below and seeded on a 96-well culture plate. The culture medium 1 was used for the subculture of the cells. The culture medium 2 was used for the cell culture after seeding the cells on the plate.
# A test compound was dissolved in dimethyl sulfoxide, whereby a 5 mM solution was prepared. Then, the resulting solution was diluted with the culture medium 2, whereby a 200 μM test compound solution was prepared.
# It has been reported that Y-27632 which is a Rho kinase inhibitor induces a morphological change in trabecular meshwork cells in Investigative Opthalmology & Visual Science, 42, 137-144 (2001). Therefore, Y-27632 (produced according to the method described in WO 90/05723) was used as a positive control, and dissolved in dimethyl sulfoxide in the same manner as the test compound, whereby a 5 mM solution was prepared, and then, the resulting solution was diluted with the culture medium 2, whereby a 200 μM positive control compound solution was prepared.
# 1) To a 96-well culture plate, a solution of TM-1 cells adjusted to a cell density of […] was added in an amount of 95 μL (1.5×10^4 cells) per well.
# 2) Incubation was performed at 37° C. in a 8% carbon dioxide gas atmosphere for 24 hours.
# 3) The test compound solution or positive control compound solution was added in an amount of 5 μL per well (the final concentration of the test compound or positive control compound was 10 μM). As a control, the culture medium 2 containing dimethyl sulfoxide (4%) was added in an amount of 5 μL per well.
# 4) Incubation was performed at 37° C. in a 8% carbon dioxide gas atmosphere for 24 hours.
# 5) The cell staining liquid was added in an amount of 10 μL per well.
# 6) Incubation was performed at 37° C. in a 8% carbon dioxide gas atmosphere for 1 hour to stain the cells.
# 7) A 37% formaldehyde solution was added in an amount of 10 μL per well.
# 8) Incubation was performed at room temperature for 1 hour to fix the cells.
# 9) Washing with phosphate-buffered saline was performed.
# 10) Using Array Scan Vti HCS reader (manufactured by Cellomics), images of stained cells magnified with a 20-fold objective lens were captured in 80 fields (10 fields×8 wells) per test compound addition group.
# 11) CSI was calculated for each cell and an average value was obtained for each test compound addition group.
# CSI was calculated using the following equation.
# CSI=4π×(Cell Area)/(Cell Perimeter)^2
Enzyme Inhibitory Rate (%) [1] [%],SMILES,CSI [2]
99,"O=C(/C=C/c1cccc(C(=O)NO)c1)NO [CBHA, N-Hydroxy-3-[3-hydroxyamino-3-oxo-1-propenyl]benzamide, reference compound]",0.545
100,"CN(C)CCCN(Cc1ccc(C(=O)Nc2ccccc2N)nc1)C(=O)Nc1ccc2c(c1)OCCO2 [Compound 1-2, N-(2-Aminophenyl)-5-[3-(2,3-dihydrobenzo[1,4]dioxin-6-yl)-1-(3-dimethylaminopropyl)ureidomethyl]pyridine-2-carboxylic acid amide]",0.516
100,"Nc1ccccc1NC(=O)c1ccc(CN(CCCN2CCOCC2)C(=O)NCCc2ccccc2)cn1 [Compound 1-3, N-(2-Aminophenyl)-5-[1-[3-(morpholin-4-yl)propyl]-3-phenethylureidomethyl]pyridine-2-carboxylic acid amide]",0.569
100,"CN(C)CCCN(Cc1ccc(C(=O)Nc2ccccc2N)nc1)C(=O)Nc1ccc(F)c(F)c1 [Compound 1-4, N-(2-Aminophenyl)-5-[3-(3,4-difluorophenyl)-1-(3-dimethylaminopropyl)ureidomethyl]pyridine-2-carboxylic acid amide]",0.556
100,"COc1ccc(NC(=O)N(CCCN(C)C)Cc2ccc(C(=O)Nc3ccccc3N)nc2)cc1 [Compound 1-6, N-(2-Aminophenyl)-5-[1-(3-dimethylaminopropyl)-3-(4-methoxyphenyl)ureidomethyl]pyridine-2-carboxylic acid amide]",0.549
96,"Nc1ccccc1NC(=O)c1ccc(CN(CCCN2CCOCC2)C(=O)Nc2cccnc2)cn1 [Compound 1-8, N-(2-Aminophenyl)-5-[1-[3-(morpholin-4-yl)propyl]-3-(pyridin-3-yl)ureidomethyl]pyridine-2-carboxylic acid amide]",0.538
98,"CN(C)CCCN(Cc1ccc(C(=O)Nc2ccccc2N)nc1)C(=O)Nc1cccc(F)c1 [Compound 1-10, N-(2-Aminophenyl)-5-[1-(3-dimethylaminopropyl)-3-(3-fluorophenyl)ureidomethyl]pyridine-2-carboxylic acid amide]",0.528
100,"Cc1ccc(NC(=O)N(CCCN(C)C)Cc2ccc(C(=O)Nc3ccccc3N)nc2)cc1F [Compound 1-13, N-(2-Aminophenyl)-5-[1-(3-dimethylaminopropyl)-3-(3-fluoro-4-methylphenyl)ureidomethyl]pyridine-2-carboxylic acid amide]",0.545
100,"Cc1cc(NC(=O)N(CCCN(C)C)Cc2ccc(C(=O)Nc3ccccc3N)nc2)ccc1F [Compound 1-14, N-(2-Aminophenyl)-5-[1-(3-dimethylaminopropyl)-3-(4-fluoro-3-methylphenyl)ureidomethyl]pyridine-2-carboxylic acid amide]",0.520
99,"CN(C)CCCN(Cc1ccc(C(=O)Nc2ccccc2N)nc1)C(=O)Nc1ccc(C#N)cc1 [Compound 1-20, N-(2-Aminophenyl)-5-[3-(4-cyanophenyl)-1-(3-dimethylaminopropyl)ureidomethyl]pyridine-2-carboxylic acid amide]",0.516
98,"CN(C)CCCN(Cc1ccc(C(=O)Nc2ccccc2N)nc1)C(=O)Nc1ccc(OC(F)(F)F)cc1 [Compound 1-21, N-(2-Aminophenyl)-5-[1-(3-dimethylaminopropyl)-3-(4-trifluoromethoxyphenyl)ureidomethyl]pyridine-2-carboxylic acid amide]",0.575
96,"N#Cc1ccc(NC(=O)N(CCCO)Cc2ccc(C(=O)Nc3ccccc3N)nc2)cc1 [Compound 1-24, N-(2-Aminophenyl)-5-[3-(4-cyanophenyl)-1-(3-hydroxypropyl)ureidomethyl]pyridine-2-carboxylic acid amide]",0.597
97,"Nc1ccccc1NC(=O)c1ccc(CN(CCCO)C(=O)Nc2ccc3c(c2)OCO3)cn1 [Compound 1-25, N-(2-Aminophenyl)-5-[3-(benzo[1,3]dioxol-5-yl)-1-(3-hydroxypropyl)ureidomethyl]pyridine-2-carboxylic acid amide]",0.571
97,"CCOC(=O)CCN(Cc1ccc(C(=O)Nc2ccccc2N)nc1)C(=O)Nc1ccc(N(C)C)cc1 [Compound 1-27, N-(2-Aminophenyl)-5-[3-(4-dimethylaminophenyl)-1-(2-ethoxycarbonylethyl)ureidomethyl]pyridine-2-carboxylic acid amide]",0.624
100,"CN(C)CCCN(Cc1ccc(C(=O)Nc2ccccc2N)nc1)C(=O)Nc1nc2ccccc2s1 [Compound 1-30, N-(2-Aminophenyl)-5-[3-(1,3-benzothiazol-2-yl)-1-(3-dimethylaminopropyl)ureidomethyl]pyridine-2-carboxylic acid amide]",0.564
99,"CN(C)CCCN(Cc1ccc(C(=O)Nc2ccccc2N)nc1)C(=O)Nc1nc2ccccc2[nH]1 [Compound 1-31, N-(2-Aminophenyl)-5-[3-(1H-benzimidazol-2-yl)-1-(3-dimethylaminopropyl)ureidomethyl]pyridine-2-carboxylic acid amide]",0.551
97,"Nc1ccccc1NC(=O)c1ccc(CN(CCCN2CCOCC2)C(=O)Nc2ccc3c(c2)CCO3)cn1 [Compound 1-38, N-(2-Aminophenyl)-5-[3-(2,3-dihydro-1-benzofuran-5-yl)-1-[3-(morpholin-4-yl)propyl]ureidomethyl]pyridine-2-carboxylic acid amide]",0.575
–,"C[C@@H](N)[C@H]1CC[C@H](C(=O)Nc2ccncc2)CC1 [Compound Y-27632, reference compound]",0.543
